The text below walks through data of patent publication US9335538B2, “Electrowetting display device and dye composition for electrowetting display” (FUJIFILM CORPORATION, priority 2012, dated 2016).

Common to all, as to assay type: physicochemical
The nature of series [1]: Hue of colored solution, visual observation. The following applies: 0.01% by mass normal decane solution, visually observed. How it is done:
(§1) A methine dye (the above-described exemplary compounds 5, 15, and 23 shown in Table 1 below were prepared) and normal decane (n-decane) which is an organic solvent were mixed. In this way, three kinds of 0.01% by mass normal decane solutions (colored compositions) each colored with a methine dye were prepared.
(§2) With regard to each of the colored solutions thus prepared, the hue, absorption maximum wavelength (λmax), absorbance (abs), and absorption coefficient (∈) were measured and evaluated according to the methods described below. Further, with regard to each of the dyes described below, the solubility (% by mass) with respect to normal hexane (n-hexane) was measured and evaluated according to the method described below.
(1) Hue Each of the colored solutions (colored compositions) was visually observed, and the hue thereof was judged.

Series [2] is described as follows: Solubility with respect to hexane. How it is done:
(3) Solubility with Respect to Hexane
The solubility of each methine dye with respect to normal hexane (n-hexane) which is a nonpolar solvent was measured in a manner as described below.
The dye was dissolved in normal hexane heated to 50° C. to prepare a saturated solution. Thereafter, the saturated solution thus obtained was left for one hour under an environment of 25° C. and 0.1 MPa.

Series [3] can be described thus: Absorption maximum wavelength, absorbance and absorption coefficient of colored solution (visible absorptiometer). The settings on record: 0.01% by mass normal decane solution. Here is the method:
as §1, §2
(2) Absorption Maximum Wavelength, Absorbance, and Absorption Coefficient
With regard to the colored solutions (colored compositions), the absorption maximum wavelength (λmax) and the absorbance were measured using a visible absorptiometer (trade name: UV-1800PC, manufactured by Shimadzu Corp.), and the absorption coefficient (∈) was calculated based on the Lambert-Beer law.

On to `CCCCCCC(Oc1ccc(C(C)(C)CC)cc1C(C)(C)CC)C(=O)NCC(C)c1nc2/c(=C\c3c(C)nn4nc(C(C)CNC(=O)C(CCCCCC)Oc5ccc(C(C)(C)CC)cc5C(C)(C)CC)[nH]c34)c(C)nn2n1` (stereo not drawn) [Exemplary compound 5], for which the Color of solution result in series [1] was “yellow”. The “solubility with respect to hexane (in words)” value in series [2] (hexane, a hydrocarbon solvent) is recorded as “high solubility”. The “Solubility in hexane (%)” value in series [2] (n-hexane, 25° C. and 0.1 MPa, % by mass) is 40 or more %. Also, in series [3], the “Absorbance (abs)” value was 0.525 and the “Absorption maximum wavelength (λmax)” value is listed as 441 nm. Also, the “Absorption coefficient (ε)” value in series [3] (calculated based on the Lambert-Beer law) is recorded as 3.20 × 10^4.
